Test results taken from the Kinase Knowledgebase extract (Sharma et al. 2016).

Each compound was assayed against MAPK14 (human) (UniProt Q16539) (assay: Inhibition of LPS Stimulated TNF Production by U937 Cells). Conditions: not given.
Sequence of MAPK14 (human) (Q16539 whole entry, looked up): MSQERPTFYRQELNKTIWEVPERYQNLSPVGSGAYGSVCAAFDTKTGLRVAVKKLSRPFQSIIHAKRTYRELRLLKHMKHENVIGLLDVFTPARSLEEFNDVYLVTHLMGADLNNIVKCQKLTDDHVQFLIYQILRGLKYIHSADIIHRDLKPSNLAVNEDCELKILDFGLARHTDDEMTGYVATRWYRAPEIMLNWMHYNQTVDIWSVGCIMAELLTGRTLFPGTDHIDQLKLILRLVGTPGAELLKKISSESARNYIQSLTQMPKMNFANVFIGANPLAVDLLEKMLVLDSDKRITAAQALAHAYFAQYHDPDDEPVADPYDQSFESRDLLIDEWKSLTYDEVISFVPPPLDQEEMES

| Compound | IC50 |
| --- | --- |
| NS(=O)(=O)c1ccc(CNC(=O)NCCCc2[nH]nc(-c3ccc(F)cc3)c2-c2ccncc2)cc1 | > 1000 nM |
| C[C@@H](NC(=O)c1ccccc1I)c1[nH]nc(-c2ccc(F)cc2)c1-c1ccncc1 | 660 nM |
| C[C@@H](NC(N)=O)c1[nH]nc(-c2ccc(F)cc2)c1-c1ccncc1 | 1510 nM |
| O=C(N[C@H](Cc1ccccc1)c1[nH]nc(-c2ccc(F)cc2)c1-c1ccncc1)c1ccccn1 | > 1000 nM |
| O=C(NCc1[nH]nc(-c2ccc(F)cc2)c1-c1ccncc1)C1CC1 | 3330 nM |
| O=C(NCCc1[nH]nc(-c2ccc(F)cc2)c1-c1ccncc1)c1cccc(C(F)(F)F)c1F | > 1000 nM |
| COc1ccc(C)cc1S(=O)(=O)NCc1[nH]nc(-c2ccc(F)cc2)c1-c1ccncc1 | > 1000 nM |
| Fc1ccc(-c2n[nH]cc2-c2ccnc3ccccc23)cc1 | 1130 nM |
| CNC(=O)CC[C@H](NC(=O)c1ccccc1OC)c1[nH]nc(-c2ccc(F)cc2)c1-c1ccncc1 | > 1000 nM |
| CCNC(=O)N1CCC(c2[nH]nc(-c3ccc(F)cc3)c2-c2ccncc2)CC1 | 730 nM |
| CC(Nc1cc(-c2c[nH]nc2-c2ccc(F)cc2)ccn1)c1ccc(F)cc1 (stereo unspecified) | 4.4 nM |
| Cc1ccc(S(=O)(=O)NCc2[nH]nc(-c3ccc(F)cc3)c2-c2ccncc2)cc1 | 1290 nM |
| Clc1ccc(-c2n[nH]cc2-c2ccnc(NCc3ccccn3)c2)cc1 | 166 nM |
| O=S(=O)(Cc1ccccc1)NCc1[nH]nc(-c2ccc(F)cc2)c1-c1ccncc1 | 210 nM |
| CCS(=O)(=O)NCc1[nH]nc(-c2ccc(F)cc2)c1-c1ccncc1 | 5000 nM |
| CNC(=O)CC[C@H](NC(=O)c1ccno1)c1[nH]nc(-c2ccc(F)cc2)c1-c1ccncc1 | > 1000 nM |
| Fc1ccc(-c2n[nH]cc2-c2ccnc(NCCN3CCOCC3)c2)cc1 | 539 nM |
| C[C@H](NS(C)(=O)=O)c1[nH]nc(-c2ccc(F)cc2)c1-c1ccncc1 | 1700 nM |
| Fc1ccc(-c2nn(CCN3CCOCC3)cc2-c2ccncc2)cc1 | 1830 nM |
| COc1ccc(CC(=O)NCc2[nH]nc(-c3ccc(F)cc3)c2-c2ccncc2)cc1 | 8240 nM |
| CCCc1n[nH]c(-c2cccc(C)c2)c1-c1ccncc1 | 29 nM |
| O=C(c1ccc(Br)cc1)N1CCC(c2[nH]nc(-c3ccc(F)cc3)c2-c2ccncc2)CC1 | 1380 nM |
| CC(C)C(=O)N[C@@H](C)c1[nH]nc(-c2ccc(F)cc2)c1-c1ccncc1 | 1010 nM |
| O=C(N[C@H](Cc1ccccc1)c1[nH]nc(-c2ccc(F)cc2)c1-c1ccncc1)c1ccccc1C(F)(F)F | > 1000 nM |
| CNC(=O)CC[C@H](NC(=O)COC)c1[nH]nc(-c2ccc(F)cc2)c1-c1ccncc1 | > 1000 nM |
| CCN(CC)CCn1cc(-c2ccncc2)c(-c2ccc(F)cc2)n1 | 509 nM |

Same assay, conditions: concentration not given here

| Compound | inhibition |
| --- | --- |
| C[C@H](NC(=O)c1cc2ccccc2s1)c1[nH]nc(-c2ccc(F)cc2)c1-c1ccncc1 | 48% |
| Cc1ccc(C)c(S(=O)(=O)NCCCc2[nH]nc(-c3ccc(F)cc3)c2-c2ccncc2)c1 | 36% |
| COc1ccc(OC)c(S(=O)(=O)N2CCC(c3[nH]nc(-c4ccc(F)cc4)c3-c3ccncc3)CC2)c1 | 24% |
| O=C(N[C@H](Cc1ccccc1)c1[nH]nc(-c2ccc(F)cc2)c1-c1ccncc1)c1ccccn1 | 8% |
| COc1cccc(CC(=O)N[C@H](C)c2[nH]nc(-c3ccc(F)cc3)c2-c2ccncc2)c1 | 18% |
| CNC(=O)CC[C@H](NC(=O)c1ccncc1)c1[nH]nc(-c2ccc(F)cc2)c1-c1ccncc1 | 8% |
| O=S(=O)(NCc1[nH]nc(-c2ccc(F)cc2)c1-c1ccncc1)c1cc(Cl)cc(Cl)c1O | 6% |
| O=C(Cc1cccc2ccccc12)NCc1[nH]nc(-c2ccc(F)cc2)c1-c1ccncc1 | 21% |
| O=S(=O)(c1ccccc1C(F)(F)F)N1CCC(c2[nH]nc(-c3ccc(F)cc3)c2-c2ccncc2)CC1 | 29% |
| C[C@H](NS(=O)(=O)c1ccc(Cl)cc1)c1[nH]nc(-c2ccc(F)cc2)c1-c1ccncc1 | 88% |
| C[C@@H](NS(=O)(=O)c1cccc2cccnc12)c1[nH]nc(-c2ccc(F)cc2)c1-c1ccncc1 | 71% |
| O=C(NCCCc1[nH]nc(-c2ccc(F)cc2)c1-c1ccncc1)NCC1CC1 | 36% |
| CN(C)c1cccc2c(S(=O)(=O)N3CCC(c4[nH]nc(-c5ccc(F)cc5)c4-c4ccncc4)CC3)cccc12 | 18% |
| O=C(NCCc1[nH]nc(-c2ccc(F)cc2)c1-c1ccncc1)c1cc(F)cc(F)c1 | 29% |
| CNC(=O)CC[C@H](NC(=O)C(C)C)c1[nH]nc(-c2ccc(F)cc2)c1-c1ccncc1 | 25% |
| Cc1ccc(C)c(S(=O)(=O)N[C@@H](C)c2[nH]nc(-c3ccc(F)cc3)c2-c2ccncc2)c1 | 80% |
| C[C@@H](NS(=O)(=O)c1cccc(Br)c1)c1[nH]nc(-c2ccc(F)cc2)c1-c1ccncc1 | 95% |
| Cc1ccc(S(=O)(=O)N2CCC(c3[nH]nc(-c4ccc(F)cc4)c3-c3ccncc3)CC2)cc1 | 14% |
| N#Cc1cccc(C(=O)NCCc2[nH]nc(-c3ccc(F)cc3)c2-c2ccncc2)c1 | 7% |
| O=C(NCc1[nH]nc(-c2ccc(F)cc2)c1-c1ccncc1)C(F)(F)F | 67% |
| CC(C)(C)C(=O)N[C@@H](Cc1ccccc1)c1[nH]nc(-c2ccc(F)cc2)c1-c1ccncc1 | 22% |
| CC(C)c1ccc(S(=O)(=O)N[C@@H](C)c2[nH]nc(-c3ccc(F)cc3)c2-c2ccncc2)cc1 | 76% |

| Compound | inhibition |
| --- | --- |
| Cc1onc(-c2ccccc2Cl)c1C(=O)NCc1[nH]nc(-c2ccc(F)cc2)c1-c1ccncc1 | 21% |
| CC(=O)O[C@@H](C)C(=O)N[C@H](C)c1[nH]nc(-c2ccc(F)cc2)c1-c1ccncc1 | 27% |
| CCCCOc1ccc(S(=O)(=O)NCCc2[nH]nc(-c3ccc(F)cc3)c2-c2ccncc2)cc1 | 29% |
| O=C(NCc1[nH]nc(-c2ccc(F)cc2)c1-c1ccncc1)c1ccccn1 | 2% |
| CC(C)S(=O)(=O)N[C@H](C)c1[nH]nc(-c2ccc(F)cc2)c1-c1ccncc1 | 52% |
| C[C@H](NS(=O)(=O)c1cc(Cl)c(Cl)s1)c1[nH]nc(-c2ccc(F)cc2)c1-c1ccncc1 | 79% |
| C[C@H](NC(=O)N(C)c1ccccc1)c1[nH]nc(-c2ccc(F)cc2)c1-c1ccncc1 | 51% |
| Cc1ccc(S(C)(=O)=O)cc1S(=O)(=O)NCc1[nH]nc(-c2ccc(F)cc2)c1-c1ccncc1 | 23% |
| C[C@H](NS(=O)(=O)c1ccc(C#N)cc1)c1[nH]nc(-c2ccc(F)cc2)c1-c1ccncc1 | 95% |
| O=C(NCc1[nH]nc(-c2ccc(F)cc2)c1-c1ccncc1)c1cccc(Br)c1 | 24% |
| COc1ccc(NC(=O)N[C@H](C)c2[nH]nc(-c3ccc(F)cc3)c2-c2ccncc2)c(OC)c1 | 40% |
| C[C@@H](NC(=O)N(C)C)c1[nH]nc(-c2ccc(F)cc2)c1-c1ccncc1 | 27% |
| O=C(NCc1[nH]nc(-c2ccc(F)cc2)c1-c1ccncc1)Nc1ccccc1-c1ccccc1 | 2% |
| C[C@@H](NS(=O)(=O)c1ccccc1C(F)(F)F)c1[nH]nc(-c2ccc(F)cc2)c1-c1ccncc1 | 70% |
| C[C@H](NC(=O)Nc1cccc(F)c1)c1[nH]nc(-c2ccc(F)cc2)c1-c1ccncc1 | 22% |
| Cc1cccc(Cl)c1S(=O)(=O)N[C@@H](C)c1[nH]nc(-c2ccc(F)cc2)c1-c1ccncc1 | 89% |
| C[C@@H](NC(=O)N1CCOCC1)c1[nH]nc(-c2ccc(F)cc2)c1-c1ccncc1 | 30% |
| C[C@@H](NS(=O)(=O)C[C@]12CC[C@@H](CC1=O)C2(C)C)c1[nH]nc(-c2ccc(F)cc2)c1-c1ccncc1 | 65% |
| C[C@H](NC(=O)N(C)C)c1[nH]nc(-c2ccc(F)cc2)c1-c1ccncc1 | 54% |
| O=C(NCc1[nH]nc(-c2ccc(F)cc2)c1-c1ccncc1)c1cnc2ccccc2n1 | 14% |
| C[C@@H](NS(=O)(=O)c1ccc(F)c(Cl)c1)c1[nH]nc(-c2ccc(F)cc2)c1-c1ccncc1 | 98% |
| C[C@@H](NS(=O)(=O)c1cccc(Cl)c1)c1[nH]nc(-c2ccc(F)cc2)c1-c1ccncc1 | 97% |

| Compound | inhibition |
| --- | --- |
| O=C(NCc1[nH]nc(-c2ccc(F)cc2)c1-c1ccncc1)c1cccc(Cl)c1Cl | 33% |
| Cc1noc(C)c1C(=O)N[C@H](C)c1[nH]nc(-c2ccc(F)cc2)c1-c1ccncc1 | 73% |
| C[C@@H](NC(=O)c1cc(C(F)(F)F)ccc1F)c1[nH]nc(-c2ccc(F)cc2)c1-c1ccncc1 | 43% |
| Cc1c(Cl)cccc1S(=O)(=O)NCc1[nH]nc(-c2ccc(F)cc2)c1-c1ccncc1 | 15% |
| C[C@@H](NS(=O)(=O)c1ccc(Cl)c(Cl)c1)c1[nH]nc(-c2ccc(F)cc2)c1-c1ccncc1 | 98% |
| C[C@@H](NS(=O)(=O)c1ccccc1Cl)c1[nH]nc(-c2ccc(F)cc2)c1-c1ccncc1 | 95% |
| O=C(NCc1[nH]nc(-c2ccc(F)cc2)c1-c1ccncc1)N[C@@H]1C[C@@H]1c1ccccc1 | 21% |
| C[C@@H](NS(=O)(=O)c1ccc(C#N)cc1)c1[nH]nc(-c2ccc(F)cc2)c1-c1ccncc1 | 90% |
| CC1(C)[C@@H]2CC[C@]1(S(=O)(=O)NCCc1[nH]nc(-c3ccc(F)cc3)c1-c1ccncc1)C(=O)C2 | 56% |
| C[C@@H](NC(=O)c1cc(F)cc(C(F)(F)F)c1)c1[nH]nc(-c2ccc(F)cc2)c1-c1ccncc1 | 52% |
| O=C(NCc1[nH]nc(-c2ccc(F)cc2)c1-c1ccncc1)c1ccc(Cl)cc1Cl | 20% |
| C[C@H](NS(=O)(=O)c1ccc(Cl)cc1Cl)c1[nH]nc(-c2ccc(F)cc2)c1-c1ccncc1 | 88% |
| C[C@H](NC(=O)c1ccc(F)cc1F)c1[nH]nc(-c2ccc(F)cc2)c1-c1ccncc1 | 45% |
| O=C(NCc1[nH]nc(-c2ccc(F)cc2)c1-c1ccncc1)Nc1ccccc1 | 31% |
| O=S(=O)(NCc1[nH]nc(-c2ccc(F)cc2)c1-c1ccncc1)c1cccc(Br)c1 | 90% |
| COC(=O)CCCC(=O)NCc1[nH]nc(-c2ccc(F)cc2)c1-c1ccncc1 | 20% |
| Cc1c(C)c(S(=O)(=O)NCc2[nH]nc(-c3ccc(F)cc3)c2-c2ccncc2)c(C)c2c1OC(C)(C)CC2 | 11% |
| C[C@@H](NC(=O)c1cccc(C(F)(F)F)c1)c1[nH]nc(-c2ccc(F)cc2)c1-c1ccncc1 | 25% |
| C[C@@H](NC(=O)c1cc2ccccc2s1)c1[nH]nc(-c2ccc(F)cc2)c1-c1ccncc1 | 16% |
| O=C(N[C@H](Cc1ccccc1)c1[nH]nc(-c2ccc(F)cc2)c1-c1ccncc1)c1ccccc1C(F)(F)F | 25% |
| Cc1ccc(S(=O)(=O)N[C@@H](Cc2ccccc2)C(=O)N[C@@H](C)c2[nH]nc(-c3ccc(F)cc3)c2-c2ccncc2)cc1 | 31% |
